According to patent US20220088040A1, “Use of System XC-Inhibitor for Treating Statin-Induced Myalgia” (Exerkine Corporation, priority 2017, published 2022):

Legend:
[1] = test system: C2C12 myotubes; assay: Glutamate efflux from C2C12 myotubes (Amplex Red glutamic acid assay of culture media); format: cell-based, murine; conditions: for effect on glutamate efflux caused by atorvastatin: sulfasalazine 20 μM, cysteamine bitartrate 100 and 300 μM, vitamin E 100 μM, coenzyme Q10 50 μM; for glutamate efflux levels: co-treated with atorvastatin 5 μM and sulfasalazine 20 μM
[2] = test system: system Xc- subunit xCT; assay: xCT protein content in C2C12 myotubes by chemiluminescent immunoblot; format: cell-based, murine; conditions: atorvastatin 5 μM
[3] = test system: primary human fibroblasts; assay: Glutamate efflux from primary human fibroblasts; format: cell-based; conditions: statin (atorvastatin 5 μM) (FIG. 3B)
[4] = test system: Sprague Dawley rats; assay: Extramyocellular glutamate in rat gastrocnemius muscle by interstitial microdialysis; format: in vivo; conditions: 10 days, muscle dialysate (FIG. 6)
[5] = test system: primary human myoblasts; conditions: co-treatment of statin (atorvastatin 5 μM) with sulfasalazine 20 μM (FIG. 3A)
[6] = 5 μM atorvastatin, combination 100 μM vitamin E + 35 μM coenzyme Q10, N-acetylcysteine 5 mM (FIG. 4)
[7] = 7.5 μM atorvastatin, combination 100 μM vitamin E + 35 μM coenzyme Q10, N-acetylcysteine 5 mM (FIG. 5)

Compound | effect on glutamate efflux caused by atorvastatin [1, 6] | effect on glutamate efflux caused by atorvastatin [1, 7] | further results
NCCS.O=C(O)C(O)C(O)C(=O)O (stereo not shown) [Cysteamine bitartrate] | mitigated | mitigated | –
CC(=O)N[C@@H](CS)C(=O)O [N-acetylcysteine] | substantially increased | substantially increased | –
CC(C)c1c(C(=O)Nc2ccccc2)c(-c2ccccc2)c(-c2ccc(F)cc2)n1CC[C@@H](O)C[C@@H](O)CC(=O)O [atorvastatin] | – | – | elevated xCT protein level ([2]; 24 hour time point (FIG. 1)): still present; elevation in xCT abundance ([2]; after 12 hours, vs vehicle (FIG. 1)): approximately 2 fold; extracellular glutamate concentrations [3]: no changes; increase in extramyocellular glutamate concentrations compared with the Control group ([4]; atorvastatin 40 mg/kg/day oral): 21%
O=C(O)c1cc(/N=N/c2ccc(S(=O)(=O)Nc3ccccn3)cc2)ccc1O [sulfasalazine] | inhibited | inhibited | glutamate efflux levels ([1]; 6 hour time point (FIG. 2)): initial increase; glutamate efflux levels ([1]; 12 hour to 24 hour time points (FIG. 2)): declined to baseline levels; glutamate efflux ([1]; sulfasalazine alone 20 μM, throughout the 0-24 h treatment period (FIG. 2)): around those of baseline values; extramyocellular glutamate concentrations, lower than Control ([4]; atorvastatin 40 mg/kg/day with sulfasalazine 200 mg/kg/day oral): 19%; glutamate efflux / extracellular glutamate levels [5]: blocked this efflux and further reduced extracellular glutamate levels to those below the vehicle control group
COc1c(O)c(C)c(C/C=C(\C)CC/C=C(\C)CC/C=C(\C)CC/C=C(\C)CC/C=C(\C)CC/C=C(\C)CC/C=C(\C)CC/C=C(\C)CC/C=C(\C)CCC=C(C)C)c(O)c1OC [ubiquinol] | mitigated | mitigated | –
vitamin E | mitigated | mitigated | –
